According to patent publication US11536685B2, “High throughput assay for identifying microbial redox enzymes” (TRUSTEES OF BOSTON UNIVERSITY, priority 2020, dated 2022):
Where two headings read alike, the source gives them in different places.

Legend:
[1] = test system: C. ammoniagenes MAO; assay: AUR fluorescence assay in Rosetta2 (DE3) cells expressing MAO; type: cell-based
[2] = test system: Rosetta2 (DE3) cells expressing MAO; assay: Cell viability of Rosetta2 (DE3) cells expressing MAO; type: cell-based, E. coli
[3] = test system: C41 cells expressing MAO; assay: Cell viability of C41 cells expressing MAO; type: cell-based, E. coli; conditions: C41 AUR fluorescing cells expressing MAO
[4] = molecular target: T1, NicA2 (Pseudomonas putida, UniProt F8G0P2); assay: AUR fluorescence of cells expressing APEX2 and NicA2; type: cell-based, Pseudomonas putida S16
[5] = molecular target: T1, NicA2; assay: Chronoamperometric NicA2 electrochemical nicotine biosensor; type: biochemical, Pseudomonas putida S16; design: poly-histidine; made in house; host or cells: E. coli BL21 (DE3); conditions: for chronoamperometric response to compound alone: added in the middle of a chronoamperometric experiment
Description: Sensor Preparation: Electrochemical experiments were performed with VersaSTAT MC™ (Ametek Inc.™, Pennsylvania, Pa.). Sensors were prepared with Screen-Printed Prussian Blue/Carbon Electrode (Metrohm USA™, Riverview, Fla.). […] The sensors were allowed to dry overnight at 4° C. with no light prior to use.
Chronoamperometric responses were recorded over time, with a potential −0.2 V (versus Ag/AgCl). […] Similar experiments were performed to evaluate the selectivity of the sensor to cotinine.
The electrochemical biosensor was composed of a Screen-Printed Prussian Blue/Carbon Electrode with a Ag/AgCl reference electrode (RE). […] Chronoamperometric responses were recorded over time with a potential −0.2 V versus the RE.
The selectivity of the biosensor was evaluated by measuring the chronoamperometric response in the presence of common interferents at relevant physiological concentrations in sweat (see e.g., FIG. 22C).

[6] = test system: candidate MRE; assay: Optimized MRE assay, clone responsive to hydrocortisone; type: cell-based; conditions: Rosetta2 (DE3) cells, clone from mixture of seven gDNA libraries
Text: Further analysis of the fluorescence cells identified two clones that expressed a candidate MRE responsive to lidocaine (FIG. 40A) and two clones that were responsive to cortisol (FIG. 40B). Additionally, the inventors also discovered one clone expressing a candidate MRE responsive to hydrocortisone (FIGS. 41A-41F).

[7] = molecular target: T2, nicA2 (Pseudomonas putida, UniProt F8G0P2); assay: FACS percentage of fluorescent cells on nicA2 induction; type: cell-based; conditions: induced with 50 μM IPTG; APEX2, AUR and nicotine present
T2 construct: expressed in transfected cells; host or cells: E. coli
T2 sequence (F8G0P2 39-482): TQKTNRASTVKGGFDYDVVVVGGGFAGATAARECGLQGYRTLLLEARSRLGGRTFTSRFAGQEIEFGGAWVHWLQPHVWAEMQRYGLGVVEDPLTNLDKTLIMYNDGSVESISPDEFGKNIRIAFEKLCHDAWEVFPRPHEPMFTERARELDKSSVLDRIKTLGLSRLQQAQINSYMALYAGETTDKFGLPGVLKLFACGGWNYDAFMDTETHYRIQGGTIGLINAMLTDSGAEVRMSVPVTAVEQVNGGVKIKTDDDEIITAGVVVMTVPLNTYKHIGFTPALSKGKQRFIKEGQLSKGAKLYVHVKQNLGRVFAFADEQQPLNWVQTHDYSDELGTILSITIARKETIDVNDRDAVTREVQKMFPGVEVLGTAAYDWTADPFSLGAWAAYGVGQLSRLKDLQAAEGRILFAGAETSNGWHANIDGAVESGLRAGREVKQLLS

Row | SMILES | AUR fluorescence [1] | cell viability [2] | cell viability as compared to Rosetta2 (DE3) cells [3] | other results
1 | NCc1ccccc1 [benzylamine] | produce fluorescent signal | do not decrease cell viability | – | –
2 | NCCc1ccc(O)cc1 [tyramine] | produce fluorescent signal | do not decrease cell viability | decreased viability | –
3 | CN1CCCC1c1cccnc1 (stereo not drawn) [nicotine] | – | substantially decreased | – | fluorescence of cells expressing APEX2 and NicA2 [4]: robust fluorescence; time of return to baseline ([5]; 200 μM nicotine): 6000 s; time to maximal current ([5]; 200 μM nicotine): 4000 s; Maximal current ([5]; 200 μM nicotine, 2 nmol NicA2, −0.2 V versus Ag/AgCl, PBS): ~250 nA
4 | C[C@]12CCC(=O)C=C1CC[C@@H]1[C@@H]2[C@@H](O)C[C@@]2(C)[C@H]1CC[C@]2(O)C(=O)CO [hydrocortisone] | – | – | – | fluorescence over time as compared to no hydrocortisone [6]: increased fluorescence
5 | NCC(O)c1ccc(O)cc1 (stereo not drawn) [octopamine] | produce fluorescent signal | do not decrease cell viability | decreased viability | –
6 | NCCc1c[nH]c2ccccc12 [tryptamine] | produce fluorescent signal | do not decrease cell viability | decreased viability | –
7 | CC(C)S[C@@H]1O[C@H](CO)[C@H](O)[C@H](O)[C@H]1O [IPTG, isopropyl b-D-1-thiogalactopyranoside] | – | – | – | percentage of cells fluorescent [7]: 79.3%
8 | c1cncc(C2=NCCC2)c1 [myosmine] | – | – | – | fluorescence of cells expressing APEX2 and NicA2 [4]: not; response to nicotine addition after NicA2 was inhibited by myosmine [5]: Minimal responses; chronoamperometric response to compound alone [5]: Minimal responses; chronoamperometric response to compound alone ([5]; listed as Myosmine): Minimal response; response to nicotine addition after NicA2 was inhibited by myosmine ([5]; listed as Myosmine): Minimal response
9 | CN1C(=O)CC[C@H]1c1cccnc1 [Cotinine] | – | – | – | effect upon the response to nicotine ([5]; 200 μM nicotine solution added to solution of the compound): minimal effect
